Reference: US20190110476A1, “NOVEL ISOTHIAZOLAMIDES, PROCESSES FOR THEIR PREPARATION AND THEIR USE AS FUNGICIDES” (priority 2014, published 2019)
Marks after values point to notes of the source that are not given here.

Assay: Measurement of LogP values by HPLC on reversed phase columns (EEC directive 79/831 Annex V.A8)
Type: physicochemical
Conditions: not given
In short: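 Following EEC directive 79/831 Annex V.A8, lipophilicity was derived from retention on reversed-phase HPLC columns. Separate values are given per diastereoisomer, and UV lambda-max (200–400 nm) was read at the peak signals.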

LogP | LogP [a] | LogP [b] | LogP [c] | SMILES
4.83[a] |  |  |  | COc1ccc(CNc2nsc(C(=O)N(C3CC3)C(C)c3ccccc3C(F)(F)F)c2Cl)cc1 (centres unmarked) [I-949]
2.39[a] |  |  |  | COc1ccc(CNc2nsc(C(=O)NCc3cncs3)c2Cl)cc1 [I-1323]
2.12[a] |  |  |  | COc1c(F)ccc(CNC(=O)c2snc(N)c2Cl)c1F [I-464]
5.56[a] |  |  |  | COc1ccc(CNc2nsc(C(=O)N(Cc3ccc(Cl)cc3Cl)C3CCC3)c2Cl)cc1 [I-934]
3.39[a] |  |  |  | Cc1cc(C)c(CN(C(=O)c2snc(N)c2Cl)C2CC2)cc1C [I-151]
 | 5.27 | 5.09 |  | CON(C(=O)c1snc(Cl)c1Cl)C(C)C1CCCCC1 (centres unmarked) [E-II-028]
0.72[a] |  |  |  | Nc1nsc(C(=O)NCC2CCC(O)C2)c1Cl (centres unmarked) [I-658]
 | 4.01^[a] |  |  | O=C(c1snc(Cl)c1Cl)N(Cc1ccc(F)cc1F)C1CC1 [E-II-014]
6.48[a] |  |  |  | CC(C)N(Cc1ccc(Cl)cc1Cl)C(=O)c1cc(N(Cc2ccccc2)Cc2ccccc2)ns1 [I-941]
2.86[a] |  |  |  | Cc1cc(C)c(CN(C(=O)c2cc(N)ns2)C2CC2)c(C)c1 [I-977]
 | 1.35^[a] |  |  | CC(C)(C)OC(=O)Nc1nsc(C(=O)O)c1Cl [E-VIII-001]
2.84[a] |  |  |  | Nc1cc(C(=O)N(Cc2cc(Cl)ccc2Br)C2CC2)sn1 [I-1001]
 | 2.87^[a] |  |  | Cc1ccc(S(C)=Nc2nsc(C(=O)NCc3cc(F)c(F)cc3F)c2F)cc1 (centres unmarked) [II-073]
3.62[a] |  |  |  | CC1CC(C)(C)c2cccc(NC(=O)c3snc(N)c3Cl)c21 (centres unmarked) [I-885]
4.91[a] |  |  |  | COc1ccc(CNc2nsc(C(=O)N(C3CC3)C(C)c3cccc(C(F)(F)F)c3)c2Cl)cc1 (centres unmarked) [I-948]
2.48[a] |  |  |  | Nc1nsc(C(=O)N(c2cc(F)cc(F)c2)C2CC2)c1Cl [I-959]
2.72[a] |  |  |  | COc1cc(F)ccc1CNC(=O)c1snc(NC(=O)C(F)(F)F)c1Cl [I-819]
2.07[a] |  |  |  | Nc1nsc(C(=O)Nc2cccc(F)c2)c1Cl [I-865]
2.57[a] |  |  |  | COc1ccc(CNc2nsc(C(=O)NC(C)c3ccccn3)c2Cl)cc1 (centres unmarked) [I-1197]
2.49[a] |  |  |  | C[C@@H]1CCCC[C@H]1NC(=O)c1snc(N)c1Br (relative stereo) [I-839]
1.47[a] |  |  |  | Nc1nsc(C(=O)NCC2CCCCO2)c1Cl (centres unmarked) [I-014]
2.78[a] |  |  |  | Cc1cc(C)c(CNC(=O)c2snc(N)c2Cl)cc1C [I-328]

LogP | LogP [a] | LogP [b] | LogP [c] | SMILES
3.13[a] |  |  |  | COc1ccc(CNc2nsc(C(=O)NCc3cccnc3OC)c2Cl)cc1 [I-1235]
1.51[a] |  |  |  | Nc1cc(C(=O)NCc2c(F)ccc(F)c2F)sn1 [I-165]
5.88[a] |  |  |  | O=C(NCC1CCCCC1)c1snc(N(Cc2ccccc2)Cc2ccccc2)c1C(F)F [I-394]
0.59[a] |  |  |  | Cn1cc(CNC(=O)c2snc(N)c2Cl)cn1 [I-033]
 | 5.93^[a] |  |  | C[C@H](NC(=O)c1snc(N=C(c2ccccc2)c2ccccc2)c1Cl)C1CCCCC1 [II-003]
2.92[a] |  |  |  | Nc1nsc(C(=O)NCCC2CCCCC2)c1Cl [I-850]
4.80[a] |  |  |  | COc1ccc(CNc2nsc(C(=O)N(Cc3c(Cl)cccc3Cl)C3CC3)c2Cl)cc1 [I-929]
 | 2.43 | 2.36 |  | Cc1cccc2c1N(C(=O)c1snc(N)c1Cl)CCC2 [II-021]
2.58[a] |  |  |  | COC1(CNC(=O)c2snc(N)c2Cl)CCC(C)CC1 (centres unmarked) [I-837]
6.63[a] |  |  |  | CC(NC(=O)c1snc(N(Cc2ccccc2)Cc2ccccc2)c1-c1ccc(F)cc1)C1CCCCC1 (centres unmarked) [I-317]
3.19[a] |  |  |  | O=C(Nc1nsc(C(=O)NCC2CCCCC2)c1Cl)c1ccccc1 [I-168]
 | 2.66 | 2.60 |  | Nc1nsc(C(=O)N2CCCc3cc(Cl)ccc32)c1Cl [II-026]
3.48[a] |  |  |  | Nc1nsc(C(=O)NC2CCCC3CCCCC32)c1Cl (centres unmarked) [I-622]
2.62[a] |  |  |  | C=CCONC(=O)c1snc(NCc2ccc(OC)cc2)c1Cl [I-1353]
3.54[a] |  |  |  | CC1CCCC(C)(C)C1CNC(=O)c1snc(N)c1Cl (centres unmarked) [I-083]
4.83[b] |  |  |  | CCC(NC(=O)c1snc(NCc2ccc(OC)cc2)c1Cl)C1CCCCC1 (centres unmarked) [I-1170]
4.15[a] |  |  |  | COc1ccc(CNc2nsc(C(=O)NCc3cc(F)cc(C(F)(F)F)c3)c2Cl)cc1 [I-1264]
 |  |  | 1.90^[c] | CCCS(CC)=Nc1nsc(C(=O)NCC2CCCCC2)c1Cl (centres unmarked) [II-086]
3.30[a] |  |  |  | CC1(C)CCCCC1N(C(=O)c1snc(N)c1Cl)C1CC1 (centres unmarked) [I-863]
3.02[a] |  |  |  | CCC(NC(=O)c1snc(NCc2ccc(OC)cc2)c1Cl)c1cn(CC)nc1C (centres unmarked) [I-1202]
1.83[a] |  |  |  | Nc1nsc(C(=O)Nc2ccccc2)c1Cl [I-852]
3.56[a] |  |  |  | C#CCNc1nsc(C(=O)N[C@@H](C)C2CCCCC2)c1Cl [I-062]

LogP | LogP [a] | LogP [b] | LogP [c] | SMILES
2.15[a] |  |  |  | Nc1nsc(C(=O)NCc2cccc(Cl)c2)c1Cl [I-021]
 | 2.00^[a] |  |  | CCS(CC)=Nc1nsc(C(=O)NCC2CCCCC2)c1Cl [II-052]
2.60[a] |  |  |  | CC1(C)CC(CNC(=O)c2snc(N)c2Br)C1 [I-842]
2.34[a] |  |  |  | C[C@@H]1CCCC[C@H]1NC(=O)c1snc(N)c1Br (relative stereo) [I-838]
3.15[a] |  |  |  | COc1ccc(CNc2nsc(C(=O)NCc3cccn3C)c2Cl)cc1 [I-1211]
2.69[a] |  |  |  | COc1ccc(CNc2nsc(C(=O)NCc3csc(C)n3)c2Cl)cc1 [I-1217]
1.44[a] |  |  |  | CCC(C)CNC(=O)c1cc(N)ns1 (centres unmarked) [I-984]
4.32[a] |  |  |  | COc1ccc(CNc2nsc(C(=O)NC(C)c3cccc4ccccc34)c2Cl)cc1 (centres unmarked) [I-1275]
4.66[a] |  |  |  | COc1ccc(CNc2nsc(C(=O)N[C@@H](C)C3CCCCC3)c2Cl)cc1 [I-065]
3.21[a] |  |  |  | CCCCn1cc(CNC(=O)c2snc(NCc3ccc(OC)cc3)c2Cl)c(C)n1 [I-1260]
2.51[a] |  |  |  | O=C(NCc1ccc(Cl)cc1)c1snc(NC(=O)C(F)F)c1Cl [I-574]
4.04[a] |  |  |  | COc1ccc(CNc2nsc(C(=O)NCC3CCCC3)c2Cl)cc1 [I-044]
2.03[a] |  |  |  | Nc1nsc(C(=O)NCc2cc(F)cc(F)c2F)c1Cl [I-130]
5.98[a] |  |  |  | O=C(NC1CCCCC1)c1snc(N(Cc2ccccc2)Cc2ccccc2)c1-c1ccc(F)cc1 [I-319]
5.46[a] |  |  |  | COc1ccc(CNc2nsc(C(=O)NC3CCCc4cc(C(C)(C)C)ccc43)c2Cl)cc1 (centres unmarked) [I-1311]
4.92[a] |  |  |  | COc1ccc(CNc2nsc(C(=O)NCc3cc(C)ccc3C3(C)CC3)c2Cl)cc1 [I-391]
 | 2.17^[a] |  |  | O=C(NCc1ccc(Cl)cc1)c1snc(N=CN2CCCC2)c1Cl [II-030]
3.04[a] |  |  |  | COc1ccc(CNc2nsc(C(=O)NC(C)(C)c3ccon3)c2Cl)cc1 [I-1329]
4.56[a] |  |  |  | COc1ccc(CNc2nsc(C(=O)N[C@H](C)C3CCCCC3)c2Cl)cc1 [I-070]
4.14[a] |  |  |  | COc1ccc(CNc2nsc(C(=O)N(Cc3ccccc3)C3CC3)c2Cl)cc1 [I-897]
4.90[a] |  |  |  | COc1ccc(CNc2nsc(C(=O)N(Cc3cc(C)cc(C)c3)C3CC3)c2Cl)cc1 [I-872]
2.01[a] |  |  |  | Nc1cc(C(=O)NCCc2ncc(C(F)(F)F)cc2Cl)sn1 [I-919]

SMILES | LogP | LogP [a] | LogP [b] | LogP [c]
O=C(NC1CCCC2CCCCC21)c1snc(N=CN2CCCC2)c1Cl (centres unmarked) [II-036] |  | 3.52^[a] |  | 

Same assay, conditions: HPLC LC-UV, acidic range, 0.1% formic acid in water and acetonitrile as eluent

SMILES | chromatographic logP
CCOC(=O)c1snc(N(Cc2ccccc2)Cc2ccccc2)c1C(F)F [E-VII-023, ethyl 3-(dibenzylamino)-4-(difluoromethyl)-1,2-thiazole-5-carboxylate] | 5.68
